The values below come from patent US11559559B2, “Angiotensin II alone or in combination for the treatment of hypotension” (The George Washington University a Congressionally …, priority 2013, dated 2023).

The data set deals with patients with high output shock. Conditions: in vivo.

Method: The investigators, clinical support staff, the patients and their families were unaware of the treatment assignment for the duration of the study.
Enrolled patients were randomized to receive the Study Drug infusion in normal saline calculated to run at a drip rate corresponding to an initial concentration of 20 ng/kg/min, plus the standard-of-care treatment for high output shock. The Study Drug was prepared in an opaque cellophane bag, the contents of which were unknown to the investigators, nurses or anyone else taking direct care of the patient. The Study Drug was administered for a total of 6 hours, with dose (and corresponding drip rate) adjustments made hourly. Study Drug dose adjustments were determined per a pre-specified protocol, based on the concomitant requirements of standard-of-care therapy (in all cases, norepinephrine infusion plus vasopressin, epinephrine and/or phenylephrine infusions) needed to maintain a mean arterial pressure (MAP) at or above 65 mm Hg, which is the standard practice at our institution. […] At the end of 6 hours, the Study Drug infusion was titrated off by being halved every 10 minutes until the Study Drug infusion dose was below 5 ng/kg/min, after which it was discontinued.
A small cohort of patients was analyzed, consistent with similar studies of this nature. […] An independent data and safety monitor (DSM) was assigned and reviewed all adverse events.

For `CC[C@H](C)[C@H](NC(=O)[C@H](Cc1ccc(O)cc1)NC(=O)[C@@H](NC(=O)[C@H](CCCNC(=N)N)NC(=O)[C@@H](N)CC(=O)O)C(C)C)C(=O)N[C@@H](Cc1cnc[nH]1)C(=O)N1CCC[C@H]1C(=O)N[C@@H](Cc1ccccc1)C(=O)O` [ATII, angiotensin II], the “Adverse events: Acidosis” value stood at 2, the “Adverse events: Atrial Fibrillation” value was determined as 2, the “Adverse events: Blood or lymphatic disorders” value is on record as 3 and the “Adverse events: Cardiac disorders” value is recorded as 7. Moreover, the “Adverse events: Decreased urine output” value stood at 3, the “Adverse events: Hypertension” value is listed as 2, the “Adverse events: Hypotension” value is given as 2 and the “Adverse events: Metabolic disorders” value is 11. For the same compound, the “Adverse events: Other disorders” value stood at 5, the “Adverse events: Renal disorders” value is given as 6, the “Adverse events: Respiratory disorders” value is recorded as 3 and the “Adverse events: Wheezing” value is given as 1. Moreover, the “Adverse events: Worsening AKI” value was found to be 0; the “Adverse events: Worsening MOSF” value worked out at 2; the “Adverse events: Worsening respiratory failure” value turned out to be 1; the “hypertension, patients receiving ATII in whom it occurred” value is 20%. Also, the “patients in whom ATII infusion was discontinued due to hypertension” value is “^⋄ATII infusion was discontinued in two patients due to hypertension” and the tolerability entry is reported as “well-tolerated”.
